Reference: patent publication US20090176817A1, “Method of Treatment of Diarrhea-Predominant Irritable Bowel Syndrome in a Subject” (priority 2005, published 2009)

Tests used:
clinical = settings: human, in vivo
Procedure: The single- and multiple-dose pharmacokinetics of cilansetron at oral doses of 4 mg and 8 mg were evaluated in a randomized, double-blind, placebo controlled, parallel group study in 32 male subjects (14 subjects received 4 mg cilansetron, 14 received 8 mg cilansetron, and 4 received placebo). Subjects received a single dose of cilansetron at their assigned dose on the first day of the study (Day 1), followed by a 7-day washout, after which they received cilansetron TID at their assigned dose for 6 days and a single dose on the morning of the seventh day (Day 14). Morning doses on all days were administered under fasted conditions. […] Renal excretion of cilansetron was negligible following single and multiple dosing at both doses, with less than 1% of the dose excreted unchanged in urine.

[1] = system: patients with malignant tumors; assay: Study S.241.2.101: cisplatin-induced nausea and vomiting; assay type: in vivo, human; settings: IV 8 mg TID
Procedure: The effect of cilansetron on nausea and vomiting has been studied in 2 clinical studies in cancer patients. Both studies were randomized, singleblind, positive-controlled, parallel-group, pilot studies in male and female patients with malignant tumors, to investigate the effect of cilansetron on cytostatic-induced nausea and vomiting. In both studies, patients were on their first cycle of chemotherapy and were being treated with cisplatin (275 mg/m2 as a single dose in Study S.24 1.2.10 1 and […] for 5 days in Study K.24 1 S O 17). Patients in Study S.24 1.2.10 1 were aged 40-74 years (ITT population=16) and patients in Study K.24 1 S O 17 were aged 39-74 years (ITT population=19). In both studies, patients were randomized to receive either […] or IV ondansetron 8 mg TID for 1 day (Study S.241.2.101) or 5 days (Study K.2415017), corresponding to the day(s) of their cisplatin administration. If nausea and vomiting were completely controlled on a treatment day, the second and/or third doses of cilansetron or ondansetron could be omitted on that day. The primary efficacy parameter in both studies was the combination of the occurrence of vomiting and the severity of nausea, with a responder being defined as a patient with no vomiting and not more than mild nausea during the treatment day(s). […]

Q: What does the source list for `Cc1nccn1C[C@H]1CCc2c(c3cccc4c3n2CCC4)C1=O` [Cilansetron, (R)-(−)-4,5,6,8,9,10-hexahydro-10-[(2-methyl-1H-imidazol-1-yl)methyl]-11H-pyrido-[3,2,1-jk]-carbazol-11-one]?
A: CL/F (clinical; 4 mg): 3226 (51) mL/min; CL/F (clinical; 8 mg): 3559 (62) mL/min; Dose excreted unchanged in urine (clinical; male): less than 1%; Intersubject % CV for AUC and Cmax (clinical; male): 36-82%; Intrasubject % CV on AUC (clinical; male): 33-55%; CLr (clinical; male, 4 mg): 7.47 (143) mL/min; DN-AUC (clinical; male, 4 mg): 6.08 (36) ng · h/mL; DN-Cmax (clinical; male, 4 mg): 2.21 (37) ng/mL; Vd/F (clinical; male, 4 mg): 406 L; AUC (clinical; male, 4 mg): 24.3 ng·h/mL; Cmax (clinical; male, 4 mg): 8.83 ng/mL; Tmax (clinical; male, 4 mg): 1.38 h; half-life (clinical; male, 4 mg, T½): 1.55 h; DN-AUC (clinical; male, 8 mg): 6.55 (69) ng · h/mL; DN-Cmax (clinical; male, 8 mg): 2.89 (61) ng/mL; Vd/F (clinical; male, 8 mg): 483 L; AUC (clinical; male, 8 mg): 52.4 ng·h/mL; CL renal (clinical; male, 8 mg, CLr): 4.68 mL/min; Cmax (clinical; male, 8 mg): 23.1 ng/mL; Tmax (clinical; male, 8 mg): 1 h; half-life (clinical; male, 8 mg, T½): 1.92 h; half-life (clinical; male, Mean half-life): 1.6 to 1.9 h; Response rate [1]: 16.7%
